According to PubChem BioAssay (NCI):
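Five concentrations, 48 hours, 96-well plates. GI50 is the concentration that inhibits growth by half. TGI is the concentration that stops growth completely.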

What was measured:
Assay in all cases: inhibition of tumour cell growth, NCI panel, 48 h
EKVX NSCLC = tested on: EKVX NSCLC
SF-268 CNS = tested on: SF-268 CNS
NCI-H226 lung = tested on: NCI-H226 lung
RXF 393 renal = tested on: RXF 393 renal
CAKI-1 renal = tested on: CAKI-1 renal
HCT-116 colon = tested on: HCT-116 colon
A549 NSCLC = tested on: A549 NSCLC
BT-549 breast = tested on: BT-549 breast
PC-3 prostate = tested on: PC-3 prostate
SF-539 CNS = tested on: SF-539 CNS

SMILES	TGI (EKVX NSCLC)	TGI (SF-268 CNS)	TGI (NCI-H226 lung)	TGI (RXF 393 renal)	TGI (CAKI-1 renal)	TGI (HCT-116 colon)	TGI (A549 NSCLC)	TGI (BT-549 breast)	TGI (PC-3 prostate)	TGI (SF-539 CNS)	GI50 (EKVX NSCLC)	GI50 (RXF 393 renal)	GI50 (CAKI-1 renal)	GI50 (BT-549 breast)	GI50 (PC-3 prostate)	GI50 (SF-539 CNS)
CC1(C)CN=C(Nc2ccc(F)c(F)c2)S1	> 100 µM	> 100 µM	> 100 µM	> 100 µM	> 100 µM	> 100 µM	> 100 µM	> 100 µM	> 100 µM	> 100 µM	–	–	–	–	–	–
O=[As](O)(O)c1ccc2nc3cc([As](=O)(O)O)ccc3nc2c1	> 100 µM	> 100 µM	> 100 µM	> 100 µM	> 100 µM	> 100 µM	> 100 µM	> 100 µM	> 100 µM	–	–	–	–	–	–	–
Cc1ccc(C2CC(c3cccc(Nc4ccncc4)c3)=NN2c2ccccc2)cc1 (stereo not given)	3.25 µM	–	–	3.02 µM	3.02 µM	–	–	3.37 µM	3.24 µM	3.16 µM	1.69 µM	1.61 µM	1.61 µM	1.81 µM	1.59 µM	1.74 µM
CN(C)Cc1cc(N=Nc2ccc(Cl)cc2)ccc1O	33.8 µM	34.4 µM	30.3 µM	27.9 µM	32.2 µM	31.2 µM	29.4 µM	26.8 µM	30.3 µM	34.8 µM	–	–	–	–	–	–
Cn1c(-c2ccc(N=NNc3ccc(-c4n[nH]c(=S)n4C)cc3)cc2)n[nH]c1=S	> 100 µM	> 100 µM	48.8 µM	32.6 µM	–	> 100 µM	> 100 µM	12.6 µM	> 100 µM	–	–	–	–	–	–	–
CN(C)CCCNC(=O)c1cc(NC(=O)c2cc(NC(=O)[C@@H]3C[C@H]3C(=O)Nc3cc(C(=O)Nc4cc(C(=O)NCCCN(C)C)n(C)c4)n(C)c3)cn2C)cn1C	> 100 µM	> 100 µM	> 100 µM	–	> 100 µM	> 100 µM	> 100 µM	> 100 µM	> 100 µM	> 100 µM	–	–	–	–	–	–
CC1OC(O[C@H]2CC[C@]3(C=O)[C@H]4CC[C@]5(C)[C@H](C6=CC(=O)OC6)CC[C@]5(O)[C@@H]4C=C[C@]3(O)C2)CC(O)C1O (stereo not given in full)	0.611 µM	0.589 µM	1.33 µM	0.193 µM	0.428 µM	0.349 µM	0.378 µM	0.608 µM	0.657 µM	0.488 µM	–	–	–	–	–	–
CCOC(=O)c1[nH]c2nc(SC)nc(Nc3ccccc3Cl)c2c1N	–	60.9 µM	70.2 µM	30.2 µM	> 100 µM	> 100 µM	44.8 µM	82.1 µM	37.1 µM	–	–	–	–	–	–	–
CCC(=O)NCCc1c2c3c(ccnc3c3ncsc13)-c1ccccc1N2	> 100 µM	> 100 µM	16.7 µM	> 100 µM	> 100 µM	51.2 µM	> 53.1 µM	57.3 µM	> 100 µM	7.52 µM	–	–	–	–	–	–
COCCOCCOCCOc1ccc(C(C#N)N(CCc2ccccc2)C(=O)c2cc(C(=O)N(CCc3ccccc3)C(C#N)c3ccc(OCCOCCOCCOC)cc3)cc(C(=O)N(CCc3ccccc3)C(C#N)c3ccc(OCCOCCOCCOC)cc3)c2)cc1 (stereo not given)	> 100 µM	> 100 µM	> 100 µM	> 100 µM	–	> 100 µM	> 100 µM	> 100 µM	> 100 µM	> 100 µM	–	–	–	–	–	–
Oc1cc(CN2COc3ccccc32)c(O)cc1CNC1CCCCC1	36.3 µM	33.6 µM	–	71.8 µM	67.5 µM	35.3 µM	> 100 µM	90.9 µM	42 µM	34.6 µM	–	–	–	–	–	–
CC(=O)Oc1c2oc3cc(O)c(O)cc3c2c(OC(C)=O)c2oc3cc(O)c(O)cc3c12	40.1 µM	51 µM	39.2 µM	32.6 µM	97.2 µM	38.2 µM	> 100 µM	31.1 µM	56.9 µM	53.3 µM	–	–	–	–	–	–
N#Cc1c(-c2ccccc2)c(C#N)c(=O)n(C2OC(CO)C(O)C(O)C2O)c1S (stereo not given)	–	> 100 µM	> 100 µM	> 100 µM	> 100 µM	–	> 100 µM	> 100 µM	> 100 µM	> 100 µM	–	–	–	–	–	–
C[N+](C)([O-])Cc1cc(-c2ccccc2)ccc1O	> 100 µM	> 100 µM	> 100 µM	> 100 µM	> 100 µM	> 100 µM	> 100 µM	> 100 µM	> 100 µM	–	–	–	–	–	–	–
CN(C)C(=O)C1CCN(Cc2c[nH]c3ccccc23)CC1	> 100 µM	> 100 µM	> 100 µM	> 100 µM	> 100 µM	> 100 µM	> 100 µM	> 100 µM	> 100 µM	–	–	–	–	–	–	–
COc1ccc(-c2nc(-c3cnccn3)n(COCCO)n2)cc1	–	> 100 µM	–	> 100 µM	–	> 100 µM	> 100 µM	> 100 µM	> 100 µM	> 100 µM	–	–	–	–	–	–
Cc1cc2c(cc1C)C(=O)/C(=N/Nc1ccc(F)cc1)CCO2	> 100 µM	> 100 µM	> 100 µM	–	> 100 µM	> 100 µM	> 100 µM	> 100 µM	> 100 µM	> 100 µM	–	–	–	–	–	–
O=[N+]([O-])c1sc2ccc(Cl)cc2c1Nc1ccc(Cl)cc1	> 100 µM	> 100 µM	> 100 µM	> 100 µM	–	–	> 100 µM	> 100 µM	> 100 µM	> 100 µM	–	–	–	–	–	–
COc1ccc2c(c1)C(N)=C(Cc1ccncc1)C2=O	> 100 µM	> 100 µM	–	> 100 µM	> 100 µM	> 100 µM	> 100 µM	> 100 µM	> 100 µM	> 100 µM	–	–	–	–	–	–
C=CCn1cnc2c(=O)[nH]c(Nc3ccccc3)nc21	> 100 µM	> 100 µM	> 100 µM	–	> 100 µM	> 100 µM	> 100 µM	> 100 µM	> 100 µM	> 100 µM	–	–	–	–	–	–
C=C1CC(COc2ccc3c(C)cc(=O)oc3c2)(c2ccccc2)OC1=O (stereo not given)	25.2 µM	23.9 µM	15.7 µM	–	3.55 µM	2.73 µM	25 µM	3.18 µM	5.78 µM	5.05 µM	–	–	–	–	–	–
Cn1c2c3c(F)c(F)ccc3nc-2cc2ccccc21	26.8 µM	25.4 µM	13.4 µM	26.9 µM	12.2 µM	–	15.4 µM	20 µM	19.4 µM	13.5 µM	–	–	–	–	–	–
